From article PMC8213057, “Targeting ALK2: An Open Science Approach to Developing Therapeutics for the Treatment of Diffuse Intrinsic Pontine Glioma” (Journal of Medicinal Chemistry, 2020)

Experiments:
PKCnu/PRKD3 = target: T1, PKCnu/PRKD3 (Homo sapiens, UniProt O94806); conditions: 1 μM; Run 1, Run 2
T1 sequence (O94806 1-890): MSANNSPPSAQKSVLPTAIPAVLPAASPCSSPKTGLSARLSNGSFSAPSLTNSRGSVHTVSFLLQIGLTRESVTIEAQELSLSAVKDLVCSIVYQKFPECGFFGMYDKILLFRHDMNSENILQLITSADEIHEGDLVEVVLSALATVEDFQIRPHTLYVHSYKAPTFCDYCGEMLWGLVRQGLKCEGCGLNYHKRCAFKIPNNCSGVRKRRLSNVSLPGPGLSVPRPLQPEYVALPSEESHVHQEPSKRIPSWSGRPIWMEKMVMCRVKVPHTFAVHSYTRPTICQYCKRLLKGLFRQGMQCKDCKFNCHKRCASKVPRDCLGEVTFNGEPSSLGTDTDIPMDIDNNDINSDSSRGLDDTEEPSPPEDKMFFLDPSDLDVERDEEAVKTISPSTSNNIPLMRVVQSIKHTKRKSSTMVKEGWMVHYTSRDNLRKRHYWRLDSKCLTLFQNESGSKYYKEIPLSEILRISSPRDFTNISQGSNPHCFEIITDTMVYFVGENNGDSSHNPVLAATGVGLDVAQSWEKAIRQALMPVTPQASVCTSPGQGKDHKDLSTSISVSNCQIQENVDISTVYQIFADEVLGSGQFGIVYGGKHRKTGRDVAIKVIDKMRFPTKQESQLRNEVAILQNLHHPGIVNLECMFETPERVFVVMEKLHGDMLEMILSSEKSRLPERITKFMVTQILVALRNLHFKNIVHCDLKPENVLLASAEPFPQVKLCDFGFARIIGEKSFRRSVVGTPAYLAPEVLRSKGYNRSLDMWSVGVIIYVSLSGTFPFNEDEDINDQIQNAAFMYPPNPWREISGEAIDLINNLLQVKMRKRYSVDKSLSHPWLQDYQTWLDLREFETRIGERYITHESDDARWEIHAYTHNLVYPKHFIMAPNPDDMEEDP

EPHB1 = target: T2, EPHB1 (Homo sapiens, UniProt P54762); conditions: 1 μM; Run 1, Run 2
T2 sequence (P54762 18-984): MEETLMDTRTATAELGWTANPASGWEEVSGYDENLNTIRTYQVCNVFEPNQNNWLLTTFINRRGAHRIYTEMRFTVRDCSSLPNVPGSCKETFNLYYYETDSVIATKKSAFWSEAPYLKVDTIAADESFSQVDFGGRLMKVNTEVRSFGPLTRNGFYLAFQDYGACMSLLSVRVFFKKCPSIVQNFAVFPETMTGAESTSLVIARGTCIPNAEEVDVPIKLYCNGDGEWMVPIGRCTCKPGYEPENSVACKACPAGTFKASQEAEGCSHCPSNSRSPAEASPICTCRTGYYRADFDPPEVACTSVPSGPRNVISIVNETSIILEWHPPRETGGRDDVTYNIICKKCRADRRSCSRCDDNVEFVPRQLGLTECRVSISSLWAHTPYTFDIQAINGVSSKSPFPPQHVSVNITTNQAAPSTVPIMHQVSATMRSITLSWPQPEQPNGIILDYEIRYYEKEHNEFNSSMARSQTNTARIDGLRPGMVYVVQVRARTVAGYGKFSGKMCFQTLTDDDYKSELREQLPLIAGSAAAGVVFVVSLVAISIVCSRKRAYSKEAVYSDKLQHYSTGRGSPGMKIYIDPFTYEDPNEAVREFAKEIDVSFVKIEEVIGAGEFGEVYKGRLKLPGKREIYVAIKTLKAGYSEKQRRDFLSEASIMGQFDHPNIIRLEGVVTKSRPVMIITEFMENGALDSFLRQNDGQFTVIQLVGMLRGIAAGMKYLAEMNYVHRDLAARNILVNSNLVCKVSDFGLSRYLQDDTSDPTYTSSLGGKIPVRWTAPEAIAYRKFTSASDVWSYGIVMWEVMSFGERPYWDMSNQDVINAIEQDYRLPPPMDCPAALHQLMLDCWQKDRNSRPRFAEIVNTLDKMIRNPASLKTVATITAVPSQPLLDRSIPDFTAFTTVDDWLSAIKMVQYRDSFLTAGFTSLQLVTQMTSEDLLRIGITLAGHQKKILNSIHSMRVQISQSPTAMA

CDK4/cyclin D1 = CDK4/cyclin D1 (Homo sapiens, UniProt P11802); assay: biochemical; conditions: read-out: % enzyme activity, 1 μM; Run 1, Run 2
CDK4/cyclin D1, sequence (P11802 whole entry): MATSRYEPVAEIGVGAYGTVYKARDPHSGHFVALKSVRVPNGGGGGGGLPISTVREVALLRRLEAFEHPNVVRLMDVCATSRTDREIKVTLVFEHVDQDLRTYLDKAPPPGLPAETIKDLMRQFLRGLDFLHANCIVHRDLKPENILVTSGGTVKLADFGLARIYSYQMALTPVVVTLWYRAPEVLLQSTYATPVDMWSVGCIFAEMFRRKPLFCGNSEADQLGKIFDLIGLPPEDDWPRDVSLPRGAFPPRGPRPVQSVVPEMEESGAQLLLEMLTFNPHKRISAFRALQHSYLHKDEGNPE
CDK4/cyclin D1, sequence (P24385 whole entry partner): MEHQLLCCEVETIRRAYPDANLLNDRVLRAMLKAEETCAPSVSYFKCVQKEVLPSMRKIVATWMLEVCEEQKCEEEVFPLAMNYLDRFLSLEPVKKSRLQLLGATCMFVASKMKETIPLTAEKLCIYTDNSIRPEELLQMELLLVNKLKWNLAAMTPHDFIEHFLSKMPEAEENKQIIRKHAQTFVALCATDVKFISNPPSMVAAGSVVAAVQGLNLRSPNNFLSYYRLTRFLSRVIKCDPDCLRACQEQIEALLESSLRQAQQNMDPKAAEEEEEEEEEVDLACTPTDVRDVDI

GLK/MAP4K3 = target: T3, GLK/MAP4K3 (Homo sapiens, UniProt Q8IVH8); assay: biochemical; conditions: read-out: % enzyme activity, 1 μM; Run 1, Run 2
T3 sequence (Q8IVH8 1-894): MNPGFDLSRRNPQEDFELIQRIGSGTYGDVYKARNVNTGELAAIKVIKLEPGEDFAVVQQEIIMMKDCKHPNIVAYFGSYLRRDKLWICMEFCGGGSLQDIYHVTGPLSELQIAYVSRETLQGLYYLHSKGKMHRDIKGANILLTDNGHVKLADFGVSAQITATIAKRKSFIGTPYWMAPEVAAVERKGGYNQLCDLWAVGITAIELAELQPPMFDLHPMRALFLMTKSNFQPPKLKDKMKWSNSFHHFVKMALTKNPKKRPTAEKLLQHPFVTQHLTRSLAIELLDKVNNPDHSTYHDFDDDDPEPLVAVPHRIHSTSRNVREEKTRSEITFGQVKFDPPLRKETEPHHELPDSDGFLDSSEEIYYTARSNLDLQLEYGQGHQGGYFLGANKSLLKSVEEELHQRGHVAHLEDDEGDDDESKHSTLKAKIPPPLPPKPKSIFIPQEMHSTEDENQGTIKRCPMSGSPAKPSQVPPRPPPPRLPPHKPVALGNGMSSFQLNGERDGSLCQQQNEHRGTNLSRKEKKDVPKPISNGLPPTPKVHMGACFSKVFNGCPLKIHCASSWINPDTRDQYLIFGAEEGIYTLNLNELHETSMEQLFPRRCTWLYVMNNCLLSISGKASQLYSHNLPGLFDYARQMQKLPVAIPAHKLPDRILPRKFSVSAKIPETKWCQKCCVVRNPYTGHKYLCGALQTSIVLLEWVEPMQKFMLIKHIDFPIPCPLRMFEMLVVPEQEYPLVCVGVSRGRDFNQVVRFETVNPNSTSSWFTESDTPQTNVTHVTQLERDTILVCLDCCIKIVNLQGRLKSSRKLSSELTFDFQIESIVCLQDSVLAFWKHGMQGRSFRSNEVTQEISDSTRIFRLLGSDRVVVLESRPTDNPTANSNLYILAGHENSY

MST3/STK24 = MST3/STK24 (Homo sapiens, UniProt Q9Y6E0); conditions: 1 μM; Run 1, Run 2
MST3/STK24, sequence (Q9Y6E0 whole entry): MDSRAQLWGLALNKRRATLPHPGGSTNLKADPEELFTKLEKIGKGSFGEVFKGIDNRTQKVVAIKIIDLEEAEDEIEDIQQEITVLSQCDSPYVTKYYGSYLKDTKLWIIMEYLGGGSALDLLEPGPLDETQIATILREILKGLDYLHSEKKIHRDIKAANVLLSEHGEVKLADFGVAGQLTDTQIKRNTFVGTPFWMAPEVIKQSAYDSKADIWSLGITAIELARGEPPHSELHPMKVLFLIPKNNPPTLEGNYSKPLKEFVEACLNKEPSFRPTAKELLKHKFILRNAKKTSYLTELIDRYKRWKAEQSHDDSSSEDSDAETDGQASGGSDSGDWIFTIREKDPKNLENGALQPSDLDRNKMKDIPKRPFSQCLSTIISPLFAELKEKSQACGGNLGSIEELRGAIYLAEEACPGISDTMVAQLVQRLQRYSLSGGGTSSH

BTK = BTK (Homo sapiens, UniProt Q06187); conditions: 1 μM; Run 1, Run 2
BTK, sequence (Q06187 whole entry): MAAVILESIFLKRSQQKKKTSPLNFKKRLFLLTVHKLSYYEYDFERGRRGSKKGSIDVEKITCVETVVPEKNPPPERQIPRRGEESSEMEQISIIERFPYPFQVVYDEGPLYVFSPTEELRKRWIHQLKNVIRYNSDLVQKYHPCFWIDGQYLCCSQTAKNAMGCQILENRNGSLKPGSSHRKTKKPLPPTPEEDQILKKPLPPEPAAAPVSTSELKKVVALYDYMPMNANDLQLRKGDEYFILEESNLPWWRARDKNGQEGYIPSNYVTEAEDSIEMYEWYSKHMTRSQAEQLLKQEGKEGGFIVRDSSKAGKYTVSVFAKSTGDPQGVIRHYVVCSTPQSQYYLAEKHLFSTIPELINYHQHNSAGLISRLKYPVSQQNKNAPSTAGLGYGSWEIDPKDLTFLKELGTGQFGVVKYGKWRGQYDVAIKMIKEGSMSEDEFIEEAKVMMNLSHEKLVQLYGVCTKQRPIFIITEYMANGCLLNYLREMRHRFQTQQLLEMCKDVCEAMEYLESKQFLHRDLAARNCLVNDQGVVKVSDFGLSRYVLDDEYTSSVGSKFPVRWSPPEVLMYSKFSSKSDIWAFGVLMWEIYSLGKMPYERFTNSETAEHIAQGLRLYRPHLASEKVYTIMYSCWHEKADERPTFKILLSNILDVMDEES

PDGFRb = PDGFRb (Homo sapiens, UniProt P09619); assay: biochemical; conditions: read-out: % enzyme activity, 1 μM; Run 1, Run 2
PDGFRb, sequence (P09619 33-1106): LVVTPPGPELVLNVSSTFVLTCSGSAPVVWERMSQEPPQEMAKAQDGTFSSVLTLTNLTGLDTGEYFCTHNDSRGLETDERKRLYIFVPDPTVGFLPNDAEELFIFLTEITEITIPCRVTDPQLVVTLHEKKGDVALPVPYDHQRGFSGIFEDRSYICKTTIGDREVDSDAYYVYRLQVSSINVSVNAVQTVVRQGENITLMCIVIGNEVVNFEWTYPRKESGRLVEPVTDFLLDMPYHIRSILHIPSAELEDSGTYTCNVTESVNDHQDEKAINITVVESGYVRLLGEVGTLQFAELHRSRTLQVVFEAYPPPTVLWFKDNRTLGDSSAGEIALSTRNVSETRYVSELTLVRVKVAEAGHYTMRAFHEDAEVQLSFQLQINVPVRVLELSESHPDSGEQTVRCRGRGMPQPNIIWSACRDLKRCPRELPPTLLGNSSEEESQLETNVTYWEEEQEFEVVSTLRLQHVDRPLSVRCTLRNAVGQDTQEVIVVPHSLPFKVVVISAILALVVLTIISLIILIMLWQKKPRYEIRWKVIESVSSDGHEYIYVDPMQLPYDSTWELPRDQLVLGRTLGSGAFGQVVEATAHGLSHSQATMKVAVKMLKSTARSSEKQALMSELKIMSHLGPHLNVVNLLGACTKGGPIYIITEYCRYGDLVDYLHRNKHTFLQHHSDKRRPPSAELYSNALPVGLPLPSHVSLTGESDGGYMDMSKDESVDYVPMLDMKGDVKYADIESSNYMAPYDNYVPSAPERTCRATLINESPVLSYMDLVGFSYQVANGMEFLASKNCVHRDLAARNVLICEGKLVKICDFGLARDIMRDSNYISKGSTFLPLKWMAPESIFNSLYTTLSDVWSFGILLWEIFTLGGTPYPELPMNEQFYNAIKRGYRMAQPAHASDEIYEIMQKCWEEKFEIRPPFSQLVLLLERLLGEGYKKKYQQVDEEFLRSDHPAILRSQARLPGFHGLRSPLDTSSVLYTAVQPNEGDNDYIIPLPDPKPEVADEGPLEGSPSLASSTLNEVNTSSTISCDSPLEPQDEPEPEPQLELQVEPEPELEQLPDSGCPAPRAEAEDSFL

## COc1cc(-c2cncc(-c3ccc(N4C[C@@H](C)N(C)[C@@H](C)C4)cc3)c2C)cc(F)c1C(N)=O [Compound 26c, 2-Fluoro-6-methoxy-4-(4-methyl-5-(4-((3R,5S)-3,4,5-trimethylpiperazin-1-yl)phenyl)pyridin-3-yl)benzamide]
PKCnu/PRKD3
  % enzyme activity: 89.59%
EPHB1
  % enzyme activity: 89.37%
CDK4/cyclin D1
  remaining activity at 1 µM: 100%
GLK/MAP4K3
  remaining activity at 1 µM: 90.3%
MST3/STK24
  % enzyme activity: 94.57%
BTK
  % enzyme activity: 94.07%
PDGFRb
  remaining activity at 1 µM: 92.1%

## COc1cc(-c2cncc(-c3ccc(N4CCN(C)CC4)cc3)c2C)cc(F)c1C(N)=O [Compound 26a, 2-Fluoro-6-methoxy-4-(4-methyl-5-(4-(4-methylpiperazin-1-yl)phenyl)pyridin-3-yl)benzamide]
PKCnu/PRKD3
  % enzyme activity: 83.26%
EPHB1
  % enzyme activity: 91.99%
CDK4/cyclin D1
  remaining activity at 1 µM: 99.4%
GLK/MAP4K3
  remaining activity at 1 µM: 88.4%
MST3/STK24
  % enzyme activity: 87.91%
BTK
  % enzyme activity: 94.35%
PDGFRb
  remaining activity at 1 µM: 77.3%
